pIC50, pKi: −log10 of the molar value. Several values for one entry are separate records, joined by “and”; a condition that tells them apart may be missing. Equal values may be shown once.
How the values were obtained:
[1] = target: Metabotropic glutamate receptor 3 (Rattus norvegicus, UniProt P31422); test: Compound was evaluated for the inhibition of binding of [3H]glutamate against rat recombinant Metabotropic glutamate receptor 3 expressed in HEK293 cells; assay type: cell-based
[2] = target: Metabotropic glutamate receptor 2 (Homo sapiens, UniProt Q14416); test: Antagonistic activity against stimulation of GTP (gamma) 35 S binding by glutamate in membranes from CHO cells expressing human Metabotropic glutamate receptor 2; assay type: cell membranes
Chain of Metabotropic glutamate receptor 2 (Q14416 whole entry): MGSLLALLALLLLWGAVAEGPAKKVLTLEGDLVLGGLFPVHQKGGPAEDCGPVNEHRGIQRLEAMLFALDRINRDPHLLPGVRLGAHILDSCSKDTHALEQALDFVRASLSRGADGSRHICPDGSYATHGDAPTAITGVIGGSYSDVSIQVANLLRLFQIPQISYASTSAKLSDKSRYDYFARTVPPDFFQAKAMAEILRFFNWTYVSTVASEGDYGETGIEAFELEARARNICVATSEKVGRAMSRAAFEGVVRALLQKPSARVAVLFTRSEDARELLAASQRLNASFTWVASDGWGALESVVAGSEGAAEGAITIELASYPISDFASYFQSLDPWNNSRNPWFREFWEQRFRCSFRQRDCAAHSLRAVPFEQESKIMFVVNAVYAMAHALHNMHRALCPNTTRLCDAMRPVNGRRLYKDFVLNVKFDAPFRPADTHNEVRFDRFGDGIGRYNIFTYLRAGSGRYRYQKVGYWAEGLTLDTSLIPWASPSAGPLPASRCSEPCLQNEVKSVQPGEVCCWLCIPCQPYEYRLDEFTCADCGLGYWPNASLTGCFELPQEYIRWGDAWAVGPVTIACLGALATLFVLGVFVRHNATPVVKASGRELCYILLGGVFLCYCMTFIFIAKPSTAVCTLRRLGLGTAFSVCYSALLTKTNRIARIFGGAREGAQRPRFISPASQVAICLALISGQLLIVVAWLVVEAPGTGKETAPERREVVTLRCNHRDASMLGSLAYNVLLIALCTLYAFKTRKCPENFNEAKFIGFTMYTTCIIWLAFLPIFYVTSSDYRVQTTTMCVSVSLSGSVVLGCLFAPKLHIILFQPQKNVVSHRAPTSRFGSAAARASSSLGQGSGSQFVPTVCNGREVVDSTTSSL

[3] = Effect of compound on GluR mediated phosphoinositol metabolisim at conc of 10 uM of GluR1b; assay type: functional
[4] = Effect of compound on GluR mediated phosphoinositol metabolisim at conc of 10 uM of mGluR5a; assay type: functional
[5] = Effect of compound on GluR mediated phosphoinositol metabolisim at conc of 50 uM of GluR1b; assay type: functional
[6] = Effect of compound on GluR mediated phosphoinositol metabolisim at conc of 50 uM of mGluR5a; assay type: functional
[7] = Hill coefficient was determined

Chain of Metabotropic glutamate receptor 3 (P31422 whole entry): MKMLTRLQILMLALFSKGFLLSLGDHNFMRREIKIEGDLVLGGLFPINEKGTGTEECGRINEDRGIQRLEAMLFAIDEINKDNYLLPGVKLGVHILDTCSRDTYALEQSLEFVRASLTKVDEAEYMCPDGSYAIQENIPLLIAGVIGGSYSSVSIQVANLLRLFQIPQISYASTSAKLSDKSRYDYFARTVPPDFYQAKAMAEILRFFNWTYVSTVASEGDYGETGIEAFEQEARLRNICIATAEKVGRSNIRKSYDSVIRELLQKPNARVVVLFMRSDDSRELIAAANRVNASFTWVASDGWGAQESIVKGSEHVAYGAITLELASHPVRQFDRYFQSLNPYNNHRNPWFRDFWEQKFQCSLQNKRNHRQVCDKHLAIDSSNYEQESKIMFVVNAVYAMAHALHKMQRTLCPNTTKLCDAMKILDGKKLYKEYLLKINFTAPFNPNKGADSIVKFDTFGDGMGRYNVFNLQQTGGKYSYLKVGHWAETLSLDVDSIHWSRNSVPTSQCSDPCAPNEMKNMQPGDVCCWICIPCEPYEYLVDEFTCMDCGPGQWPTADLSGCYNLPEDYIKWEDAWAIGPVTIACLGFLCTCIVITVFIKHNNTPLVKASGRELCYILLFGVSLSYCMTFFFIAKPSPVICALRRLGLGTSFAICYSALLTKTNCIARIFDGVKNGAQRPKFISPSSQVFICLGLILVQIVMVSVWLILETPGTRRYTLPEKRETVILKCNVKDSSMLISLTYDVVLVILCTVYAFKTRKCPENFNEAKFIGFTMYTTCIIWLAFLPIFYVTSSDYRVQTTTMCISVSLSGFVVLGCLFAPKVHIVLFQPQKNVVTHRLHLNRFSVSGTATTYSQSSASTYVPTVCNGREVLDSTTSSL

Row | pIC50 [1] | pIC50 [2] | pKi [2] | Hill coefficient [7] | SMILES | Activity [3] | Activity [4] | Activity [5] | Activity [6]
1 | 7.12 | 6.70 | 7.07 | 0.92 and 1.09 | NC(C(=O)O)[C@H]1[C@@H](CCC2c3ccccc3Oc3ccccc32)[C@@H]1C(=O)O (stereo not given in full) | 110% | 103% | 111% | 91%
2 | 5.89 | – | 5.57 | 0.93 and 0.78 | NC(C(=O)O)[C@H]1[C@@H](CC2c3ccccc3Oc3ccccc32)[C@@H]1C(=O)O (stereo not given in full) | 131% | 101% | 95% | 94%

— ChEMBL document CHEMBL1134156, “Design, synthesis and preliminary evaluation of novel 3'-substituted carboxycyclopropylglycines as antagonists at group 2 metabotropic glutamate receptors” (Bioorg Med Chem Lett, 2001)
